Key:
[1] = biological target: T1, Adenosine receptor A1 (Homo sapiens, UniProt P30542); assay: Binding affinity to N-terminal NLuc tagged human A1 adenosine receptor expressed in Flp-In-CHO cells by competitive binding assay; assay type: cell-based
T1 sequence (P30542 whole entry): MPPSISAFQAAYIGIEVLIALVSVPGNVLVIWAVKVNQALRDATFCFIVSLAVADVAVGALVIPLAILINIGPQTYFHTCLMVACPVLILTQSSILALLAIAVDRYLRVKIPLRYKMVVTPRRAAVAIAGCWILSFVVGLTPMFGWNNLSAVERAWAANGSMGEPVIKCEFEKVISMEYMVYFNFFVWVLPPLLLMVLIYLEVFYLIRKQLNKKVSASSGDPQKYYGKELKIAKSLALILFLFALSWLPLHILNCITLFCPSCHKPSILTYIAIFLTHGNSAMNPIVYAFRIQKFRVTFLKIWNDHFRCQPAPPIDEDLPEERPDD

[2] = biological target: T2, Adenosine receptor A3 (Homo sapiens, UniProt P0DMS8); assay: Antagonist activity at N-terminal NLuc tagged human A3 adenosine receptor; assay type: functional
T2 sequence (P0DMS8 whole entry): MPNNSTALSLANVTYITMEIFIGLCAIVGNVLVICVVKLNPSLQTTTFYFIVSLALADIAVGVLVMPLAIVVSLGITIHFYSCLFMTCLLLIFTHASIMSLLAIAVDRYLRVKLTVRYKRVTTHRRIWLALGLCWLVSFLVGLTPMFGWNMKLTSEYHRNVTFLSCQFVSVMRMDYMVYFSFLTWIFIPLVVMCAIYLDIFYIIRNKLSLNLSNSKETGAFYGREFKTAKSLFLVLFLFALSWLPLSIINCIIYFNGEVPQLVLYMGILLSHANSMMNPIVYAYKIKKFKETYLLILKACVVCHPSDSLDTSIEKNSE

[3] = biological target: T2, Adenosine receptor A3; assay: Agonist activity at A3 adenosine receptor (unknown origin); assay type: functional
[4] = biological target: T2, Adenosine receptor A3; assay: Agonist activity at human A3 adenosine receptor expressed in Flp-In-CHO cells assessed as calcium influx by competitive binding assay; assay type: functional, cell-based

Row | Ki [1] [nM] | Kd [2] [nM] | EC50 [3] [nM] | EC50 [4] [nM] | Structure (SMILES)
1 | 9.33 | 30.9 |  |  | CCCn1c(=O)c2[nH]c(-c3ccc(OCC(=O)NCCNC(=O)CCCCNC(=O)COc4ccc(/C=C/C5=[N+]6C(=Cc7ccc(-c8cccs8)n7[B-]6(F)F)C=C5)cc4)cc3)nc2n(CCC)c1=O
2 |  |  | 50.1 | 1260 | O=C(CCCCCNC(=O)COc1ccc(/C=C/C2=[N+]3C(=Cc4ccc(-c5cccs5)n4[B-]3(F)F)C=C2)cc1)NCCCCNc1ncnc2c1ncn2[C@@H]1O[C@H](CO)[C@@H](O)[C@H]1O

Reference: ChEMBL document CHEMBL5042471, “Development and Application of Subtype-Selective Fluorescent Antagonists for the Study of the Human Adenosine A1 Receptor in Living Cells” (J Med Chem, 2021)
